Measured values as given in publication PMC5940828, “Analysis of β-tubulin-carbendazim interaction reveals that binding site for MBC fungicides does not include residues involved in fungicide resistance” (Scientific Reports, 2018).

Target: T1, P. xanthii β-tubulin (TUB2), MBC-sensitive (E198) (Podosphaera fusca, UniProt M4QC09)
T1 construct: β-tubulin alone without α-tubulin; E198 allele
Assay: intrinsic tryptophan fluorescence quenching, modified Stern-Volmer
Format: binding
Conditions: double-log; n = 1.41; excitation 295 nm; carbendazim dosed as commercial 50% water-dispersible formulation (Maypon Flow)
Description: intrinsic tryptophan fluorescence quenching, modified Stern-Volmer on P. xanthii β-tubulin (TUB2), MBC-sensitive (E198)

T1 sequence (M4QC09 1-447): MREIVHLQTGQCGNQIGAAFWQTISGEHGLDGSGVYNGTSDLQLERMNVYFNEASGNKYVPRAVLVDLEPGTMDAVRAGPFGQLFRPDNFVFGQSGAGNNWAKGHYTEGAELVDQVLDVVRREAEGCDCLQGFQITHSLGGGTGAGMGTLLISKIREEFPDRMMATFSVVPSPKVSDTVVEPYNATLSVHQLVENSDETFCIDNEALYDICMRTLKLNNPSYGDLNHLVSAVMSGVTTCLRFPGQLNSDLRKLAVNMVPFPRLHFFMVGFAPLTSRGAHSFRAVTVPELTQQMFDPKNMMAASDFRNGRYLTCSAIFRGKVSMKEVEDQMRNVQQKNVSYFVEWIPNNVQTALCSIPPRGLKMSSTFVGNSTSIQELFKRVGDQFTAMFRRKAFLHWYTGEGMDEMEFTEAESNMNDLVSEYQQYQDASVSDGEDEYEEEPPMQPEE

## COC(=O)Nc1nc2ccccc2[nH]1 [carbendazim, methyl-2-benzimidazole carbamate]
  K^b: 1380 M⁻¹
